Results as given in ChEMBL document CHEMBL3885881, “DrugMatrix”.

Species: Rattus norvegicus
Test: DrugMatrix - Regimen: Daily Repeat
Type: toxicity, organism-based, Sprague-Dawley
Set-up: regimen Daily Repeat, gender Male, age 6-8 weeks
Conditions: in vivo, iv, vehicle 100 % SALINE; for ABSOLUTE BASOPHIL / ABSOLUTE EOSINOPHIL / ABSOLUTE LYMPHOCYTE / ABSOLUTE MONOCYTE / ABSOLUTE SEGMENTED NEUTROPHIL / BASOPHIL / EOSINOPHIL / ERYTHROCYTE COUNT / HEMATOCRIT / HEMOGLOBIN / LEUKOCYTE COUNT / LYMPHOCYTE / MEAN CORPUSCULAR HEMOGLOBIN / MEAN CORPUSCULAR HEMOGLOBIN CONCENTRATION / MEAN CORPUSCULAR VOLUME / MONOCYTE / NEUTROPHIL / NUCLEATED RED BLOOD CELLS / PLATELET COUNT: tissue Blood; for ALANINE AMINOTRANSFERASE / ALBUMIN / ALKALINE PHOSPHATASE / ASPARTATE AMINOTRANSFERASE / BLOOD UREA NITROGEN / CARBON DIOXIDE / CHLORIDE / CHOLESTEROL / CREATINE PHOSPHOKINASE / CREATININE / GLUCOSE / LACTATE DEHYDROGENASE / LIPASE / PHOSPHORUS / POTASSIUM / SODIUM / TOTAL BILIRUBIN / TOTAL PROTEIN / URIC ACID: tissue Plasma
[1] = 23 mg/kg, 120 h, dose level High, time 5 day
[2] = […], 72 h, dose 2.3 mg/Kg, dose level Low, time 3 day
[3] = […], 120 h, dose 2.3 mg/Kg, dose level Low, time 5 day

## COC(=O)C[C@](O)(CCC(C)(C)O)C(=O)O[C@@H]1C(OC)=C[C@]23CCCN2CCc2cc4c(cc2[C@H]13)OCO4 [HARRINGTONINE]
[1]
  ABSOLUTE BASOPHIL: 0 CELLS/uL
  ABSOLUTE EOSINOPHIL: 0 CELLS/uL
  ABSOLUTE LYMPHOCYTE: 5612 CELLS/uL
  ABSOLUTE MONOCYTE: 134.67 CELLS/uL
  ABSOLUTE SEGMENTED NEUTROPHIL: 53.33 CELLS/uL
  BASOPHIL: 0%
  EOSINOPHIL: 0%
  ERYTHROCYTE COUNT: 5.85 x10E6/uL
  HEMATOCRIT: 36.17%
  HEMOGLOBIN: 13.93 G/DL
  LEUKOCYTE COUNT: 5.8 x10E3/uL
  LYMPHOCYTE: 96.67%
  MEAN CORPUSCULAR HEMOGLOBIN: 23.83 pg
  MEAN CORPUSCULAR HEMOGLOBIN CONCENTRATION: 38.53 G/DL
  MEAN CORPUSCULAR VOLUME: 61.87 fL
  MONOCYTE: 2.33%
  NEUTROPHIL: 1%
  NUCLEATED RED BLOOD CELLS: 0 /100WBC
  PLATELET COUNT: 414 x10E3/uL
  ALANINE AMINOTRANSFERASE: 83 u/L
  ALBUMIN: 3.47 G/DL
  ALKALINE PHOSPHATASE: 214 u/L
  ASPARTATE AMINOTRANSFERASE: 226.33 u/L
  BLOOD UREA NITROGEN: 15.67 mg/dL
  CARBON DIOXIDE: 24 mmol/L
  CHLORIDE: 100.33 MEQ/L
  CHOLESTEROL: 71 mg/dL
  CREATINE PHOSPHOKINASE: 222 u/L
  CREATININE: 0.27 mg/dL
  GLUCOSE: 151.67 mg/dL
  LACTATE DEHYDROGENASE: 292.33 u/L
  LIPASE: 7.33 u/L
  PHOSPHORUS: 9.13 mg/dL
  POTASSIUM: 6.23 MEQ/L
  SODIUM: 143.4 MEQ/L
  TOTAL BILIRUBIN: 0.23 mg/dL
  TOTAL PROTEIN: 5.73 G/DL
  URIC ACID: 1.2 mg/dL
[2]
  ABSOLUTE BASOPHIL: 0 CELLS/uL
  ABSOLUTE EOSINOPHIL: 41.67 CELLS/uL
  ABSOLUTE LYMPHOCYTE: 11224.33 CELLS/uL
  ABSOLUTE MONOCYTE: 81.33 CELLS/uL
  ABSOLUTE SEGMENTED NEUTROPHIL: 586 CELLS/uL
  BASOPHIL: 0%
  EOSINOPHIL: 0.33%
  ERYTHROCYTE COUNT: 5.44 x10E6/uL
  HEMATOCRIT: 34.9%
  HEMOGLOBIN: 13.83 G/DL
  LEUKOCYTE COUNT: 11.93 x10E3/uL
  LYMPHOCYTE: 94%
  MEAN CORPUSCULAR HEMOGLOBIN: 25.47 pg
  MEAN CORPUSCULAR HEMOGLOBIN CONCENTRATION: 39.63 G/DL
  MEAN CORPUSCULAR VOLUME: 64.17 fL
  MONOCYTE: 0.67%
  NEUTROPHIL: 5%
  NUCLEATED RED BLOOD CELLS: 0 /100WBC
  PLATELET COUNT: 1133.33 x10E3/uL
  ALANINE AMINOTRANSFERASE: 48.67 u/L
  ALBUMIN: 4.13 G/DL
  ALKALINE PHOSPHATASE: 303.67 u/L
  ASPARTATE AMINOTRANSFERASE: 64.33 u/L
  BLOOD UREA NITROGEN: 15.67 mg/dL
  CARBON DIOXIDE: 31.67 mmol/L
  CHLORIDE: 101 MEQ/L
  CHOLESTEROL: 51 mg/dL
  CREATINE PHOSPHOKINASE: 184 u/L
  CREATININE: 0.17 mg/dL
  GLUCOSE: 163 mg/dL
  LACTATE DEHYDROGENASE: 69 u/L
  LIPASE: 8.67 u/L
  PHOSPHORUS: 12.37 mg/dL
  POTASSIUM: 6.49 MEQ/L
  SODIUM: 146.83 MEQ/L
  TOTAL BILIRUBIN: 0.2 mg/dL
  TOTAL PROTEIN: 5.5 G/DL
  URIC ACID: 2 mg/dL
[3]
  ABSOLUTE BASOPHIL: 0 CELLS/uL
  ABSOLUTE EOSINOPHIL: 0 CELLS/uL
  ABSOLUTE LYMPHOCYTE: 10385.33 CELLS/uL
  ABSOLUTE MONOCYTE: 95.33 CELLS/uL
  ABSOLUTE SEGMENTED NEUTROPHIL: 1152.67 CELLS/uL
  BASOPHIL: 0%
  EOSINOPHIL: 0%
  ERYTHROCYTE COUNT: 5.81 x10E6/uL
  HEMATOCRIT: 35.2%
  HEMOGLOBIN: 13.83 G/DL
  LEUKOCYTE COUNT: 11.63 x10E3/uL
  LYMPHOCYTE: 90.67%
  MEAN CORPUSCULAR HEMOGLOBIN: 23.83 pg
  MEAN CORPUSCULAR HEMOGLOBIN CONCENTRATION: 39.3 G/DL
  MEAN CORPUSCULAR VOLUME: 60.6 fL
  MONOCYTE: 0.67%
  NEUTROPHIL: 8.67%
  NUCLEATED RED BLOOD CELLS: 0.33 /100WBC
  PLATELET COUNT: 1139 x10E3/uL
  ALANINE AMINOTRANSFERASE: 52 u/L
  ALBUMIN: 4.03 G/DL
  ALKALINE PHOSPHATASE: 408.33 u/L
  ASPARTATE AMINOTRANSFERASE: 89.67 u/L
  BLOOD UREA NITROGEN: 18.67 mg/dL
  CARBON DIOXIDE: 25 mmol/L
  CHLORIDE: 102 MEQ/L
  CHOLESTEROL: 60 mg/dL
  CREATINE PHOSPHOKINASE: 576 u/L
  CREATININE: 0.16 mg/dL
  GLUCOSE: 170.33 mg/dL
  LACTATE DEHYDROGENASE: 158.67 u/L
  LIPASE: 8.67 u/L
  PHOSPHORUS: 12.3 mg/dL
  POTASSIUM: 6.27 MEQ/L
  SODIUM: 145.13 MEQ/L
  TOTAL BILIRUBIN: 0.2 mg/dL
  TOTAL PROTEIN: 5.73 G/DL
  URIC ACID: 1.6 mg/dL
